Data: US11827917B1, “Methods for the conversion of fermentable sugars to ethanol” (Colorado State University Research Foundation, priority 2020, dated 2023)
“Also recorded” adds a separate entry of the source. Marks after values point to notes of the source that are not given here.

Assays:
[1] = tested on: S. cerevisiae JAY 270; assay: Screening of growth in 24-well plates on YPDA; format: cell-based, Saccharomyces cerevisiae; conditions: for Cell growth score (colony size): YPDA, 30° C., 24 h; for Concentration at which cell growth was reduced in the plate assay: molar equivalent of the % w/v value; for Effect on cell growth in the plate assay (words): tested concentrations
Method: Procedure: An inoculum culture of S. cerevisiae JAY 270 was grown in 100 mL of yeast extract-peptone-dextrose (YPD) medium (10 g/L yeast extract, 20 g/L peptone, 20 g/L glucose) in 200-mL serum bottles overnight in a shaker at 30° C. and 200 rpm. The cells were collected by centrifuging 10 min at 4000×g and 4° C. To wash off the medium residue, the cell pellet was resuspended in 30 mL of sterile 0.8% (w/v) NaCl solution and centrifuged at 4000×g for 10 min. The cell pellet was washed twice. Finally, the cell pellet was resuspended and diluted in 0.8% (w/v) NaCl to achieve cell concentrations of OD600=0.02 and 0.2.
The eight compounds were added in YPDA separately at 0.03%, 0.05%, 0.1%, and 0.2% (w/v). The standard control treatment contained only YPDA medium without addition of these compounds. Since the TrpOH and TyrOH stock solutions were dissolved in DMSO, the controls for those tests were YPDA with the same concentration of DMSO. A 3-mL aliquot of YPDA medium with or without the test compounds were loaded in each well of the 24-well plate.
Ten μL of the prepared S. cerevisiae JAY 270 cell suspension at OD600=0.02 or 0.2 was loaded onto the YPDA medium in each well of the 24-well plates. Then the plates were sealed with Parafilm and incubated at 30° C. for 24 h. There were four biological replicates for each treatment.
Yeast cell growth was evaluated by visual observation of the colony size in the well and scored as 0, +, ++, and +++.

[2] = tested on: S. cerevisiae JAY 270; assay: Growth test in liquid YNB medium, low/high nitrogen, serum bottles; format: cell-based, Saccharomyces cerevisiae; conditions: 40, 200, 1000 mg/L; low and high nitrogen media
Method: A second set of tests was performed in a defined liquid medium, Yeast Nitrogen Base with Glucose (YNB), containing (NH4)2SO4 at either low (1 mM) or high (10 mM) nitrogen content. […] All serum bottles were incubated in a shaker at 30° C. and 150 RPM. Each treatment was performed in biological duplicate. Samples were collected at 0, 5, and 10 hours.

[3] = tested on: S. kudriavzezii JAY 1503; assay: Serum-bottle cultivation in YPD, different yeast strains; format: cell-based; conditions: 0.2%; for DCW / DCW Δ vs. ref / OD600 / OD600 Δ vs. ref: S. kudriavzezii JAY 1503, YPD
Method: (§1) Analytical methods: Cell growth was evaluated by monitoring OD600 and cell dry mass concentration. For dry mass measurements, 1.0 mL of culture was transferred to a pre-dried and pre-weighed 2-mL centrifuge tube. The tubes were centrifuged for 10 min at 14000 rpm using a microcentrifuge, and then the cell pellets were dried in an oven for 3 days at 65° C. The cell dry mass was determined by subtracting the initial tube mass from the dried mass of tube with cells. The concentrations of glucose, ethanol, and glycerol were measured via HPLC (Shimadzu LC20A series) outfitted with a refractive index detector and using an Aminex HPX-87H (300×7.8 mm) organic acid column and Cation H+ guard cartridge (Bio Rad Laboratories, Hercules, CA). The column was maintained at 65° C. and the mobile phase was 5 mM sulfuric acid with a flow rate of 0.6 mL/min. Standard compound solutions were used to calibrate the HPLC. Each sample was analyzed three times by HPLC.
(§2) Procedure: Seven yeast strains (S. cerevisiae ATCC 26603, S. cerevisiae JAY 238, S. cerevisiae JAY 240, S. cerevisiae JAY 241, S. paradoxus JAY 1502, S. kudriavzezii JAY 1503, and S. mikatae JAY 1504) were pre-cultured in 30 mL of YPD medium in 100 mL serum bottle overnight in a shaker at 30° C. and 200 rpm. The precultured yeast cells of each strains were collected and washed twice. Finally, the cell pellet was resuspended in about 10 mL 0.8% (w/v) NaCl and the OD600 measured. TyrOH, PheOH, and TrpOH were added to 30 mL of YPD medium in 100-mL serum bottles at 0.2% (w/v) respectively. The same amount of DMSO was added in YPD medium and served as control to the TrpOH and TyrOH treatments. The prepared yeast cells were added to obtain the initial cell concentration at OD600=0.2. The serum bottles were sealed and cultured in a shaker at 30° C. and 200 rpm for 24 h. There were three biological replicates for each treatment.

[4] = tested on: S. mikatae JAY 1504; assay: as above; format: cell-based; conditions: 0.2%; for DCW / DCW Δ vs. ref / OD600 / OD600 Δ vs. ref: S. mikatae JAY 1504, YPD
Method: as §1, §2

[5] = tested on: S. paradoxus JAY 1502; assay: as above; format: cell-based; conditions: 0.2%; for DCW / DCW Δ vs. ref / OD600 / OD600 Δ vs. ref: S. paradoxus JAY 1502, YPD
Method: as §1, §2

[6] = S. kudriavzezii JAY 1503, YPD (Table 9B)
[7] = S. mikatae JAY 1504, YPD (Table 9B)
[8] = S. paradoxus JAY 1502, YPD (Table 9B)

Compound: OCCc1ccc(O)cc1 [TyrOH, Tyrosol]
- Cell growth score (colony size) ([1]; 0.03% (w/v)): +++
- Cell growth score (colony size) ([1]; 0.05% (w/v)): +++
- Cell growth score (colony size) ([1]; 0.10% (w/v)): +++
- Cell growth score (colony size) ([1]; 0.20% (w/v)): +
- Concentration at which cell growth was reduced in the plate assay [1]: 7.2 mM
- Effect on cell growth in the plate assay (words) ([1]; 24-well plates): inhibited growth; also recorded: reduced the growth
- Inhibitory effect on yeast cell growth in liquid YNB medium [2]: inhibitory at 1000 mg/L in both media, but not at 40 and 200 mg/L
- Biomass Yield ([3]; S. kudriavzezii JAY 1503): 0.029 ± 0.000 g/g
- Biomass yield % change vs. control ([3]; S. kudriavzezii JAY 1503): −35* %
- EtOH yield ([3]; S. kudriavzezii JAY 1503): 0.388 ± 0.000 g/g
- EtOH yield % change vs. control ([3]; S. kudriavzezii JAY 1503): +7.8* %
- Glycerol yield ([3]; S. kudriavzezii JAY 1503): 0.056 ± 0.001 g/g
- Glycerol yield % change vs. control ([3]; S. kudriavzezii JAY 1503): +8.1%
- DCW [3]: 2.10 mg
- DCW Δ vs. ref [3]: 82.4%
- OD600 [3]: 0.82
- OD600 Δ vs. ref [3]: 52.4%
- Biomass Yield [3, 6]: 0.029 + 0.000 g/g
- Biomass yield Δ vs. ref [3, 6]: −35.1%
- Ethanol yield [3, 6]: 0.388 ± 0.000 g/g
- Ethanol yield Δ vs. ref [3, 6]: 7.8%
- Glycerol yield [3, 6]: 0.056 ± 0.001 g/g
- Glycerol yield Δ vs. ref [3, 6]: 8.07%
- Biomass Yield ([4]; S. mikatae JAY 1504): 0.052 ± 0.000 g/g
- Biomass yield % change vs. control ([4]; S. mikatae JAY 1504): −20* %
- EtOH yield ([4]; S. mikatae JAY 1504): 0.359 ± 0.042 g/g
- EtOH yield % change vs. control ([4]; S. mikatae JAY 1504): +6.7* %
- Glycerol yield ([4]; S. mikatae JAY 1504): 0.036 ± 0.001 g/g
- Glycerol yield % change vs. control ([4]; S. mikatae JAY 1504): −24* %
- DCW [4]: 2.65 mg
- DCW Δ vs. ref [4]: 79.1%
- OD600 [4]: 1.75
- OD600 Δ vs. ref [4]: 77.3%
- Biomass Yield [4, 7]: 0.052 + 0.000 g/g
- Biomass yield Δ vs. ref [4, 7]: −20.1%
- Ethanol yield [4, 7]: 0.359 ± 0.042 g/g
- Ethanol yield Δ vs. ref [4, 7]: 6.7%
- Glycerol yield [4, 7]: 0.036 ± 0.001 g/g
- Glycerol yield Δ vs. ref [4, 7]: −23.65%
- Biomass Yield ([5]; S. paradoxus JAY 1502): 0.055 ± 0.000 g/g
- Biomass yield % change vs. control ([5]; S. paradoxus JAY 1502): −15* %
- EtOH yield ([5]; S. paradoxus JAY 1502): 0.410 ± 0.014 g/g
- Glycerol yield ([5]; S. paradoxus JAY 1502): 0.041 ± 0.001 g/g
- Glycerol yield % change vs. control ([5]; S. paradoxus JAY 1502): −9.9%
- DCW [5]: 2.15 mg
- DCW Δ vs. ref [5]: 81.1%
- OD600 [5]: 1.90
- OD600 Δ vs. ref [5]: 85.5%
- Biomass Yield [5, 8]: 0.055 + 0.000 g/g
- Biomass yield Δ vs. ref [5, 8]: −15.4%
- Ethanol yield [5, 8]: 0.410 ± 0.014 g/g
- Ethanol yield Δ vs. ref [5, 8]: 5.4%
- Glycerol yield [5, 8]: 0.041 ± 0.001 g/g
- Glycerol yield Δ vs. ref [5, 8]: −9.89%

Compound: OCCc1c[nH]c2ccccc12 [TrpOH, tryptophol]
- Cell growth score (colony size) ([1]; 0.03% (w/v)): +++
- Cell growth score (colony size) ([1]; 0.05% (w/v)): ++
- Cell growth score (colony size) ([1]; 0.10% (w/v)): +
- Cell growth score (colony size) ([1]; 0.20% (w/v)): 0
- Concentration at which cell growth was reduced in the plate assay [1]: 3.1 mM
- Effect on cell growth in the plate assay (words) ([1]; 24-well plates): inhibited growth; also recorded: reduced the growth
- Concentration at which cell growth was reduced/inhibited in the plate assay ([1]; w/v, 24-well plates): 0.05%
- Inhibitory effect on yeast cell growth in liquid YNB medium [2]: strongest inhibitory effect
- Cell growth ([3]; S. kudriavzezii JAY 1503): very low cell growth
- DCW [3]: 0.48 mg
- DCW Δ vs. ref [3]: 18.6%
- OD600 [3]: 0.16
- OD600 Δ vs. ref [3]: 9.9%
- Cell growth ([4]; S. mikatae JAY 1504): very low cell growth
- DCW [4]: 1.45 mg
- DCW Δ vs. ref [4]: 43.3%
- OD600 [4]: 0.64
- OD600 Δ vs. ref [4]: 28.1%
- Biomass Yield ([5]; S. paradoxus JAY 1502): 0.038 ± 0.001 g/g
- Biomass yield % change vs. control ([5]; S. paradoxus JAY 1502): −42* %
- EtOH yield ([5]; S. paradoxus JAY 1502): 0.417 ± 0.056 g/g
- EtOH yield % change vs. control ([5]; S. paradoxus JAY 1502): +7.2* %
- Glycerol yield increase from control ([5]; S. paradoxus JAY 1502): 71%
- DCW [5]: 1.40 mg
- DCW Δ vs. ref [5]: 52.8%
- OD600 [5]: 0.40
- OD600 Δ vs. ref [5]: 18.0%
- Biomass Yield [5, 8]: 0.038 + 0.001 g/g
- Biomass yield Δ vs. ref [5, 8]: −42.0%
- Ethanol yield [5, 8]: 0.417 ± 0.056 g/g
- Ethanol yield Δ vs. ref [5, 8]: 7.2%
